IC50 data for 22 compounds are collected here from patent US10294207B2, “Pyrazole derivatives as TNIK, IKKϵ and TBK1 inhibitor and pharmaceutical composition comprising same” (GREEN CROSS CORPORATION, priority 2015, dated 2019).

One experiment deals with T1, IKKε (Homo sapiens, UniProt Q14164).
T1 construct: purchased Invitrogen PR8031B
T1 sequence (Q14164 1-716): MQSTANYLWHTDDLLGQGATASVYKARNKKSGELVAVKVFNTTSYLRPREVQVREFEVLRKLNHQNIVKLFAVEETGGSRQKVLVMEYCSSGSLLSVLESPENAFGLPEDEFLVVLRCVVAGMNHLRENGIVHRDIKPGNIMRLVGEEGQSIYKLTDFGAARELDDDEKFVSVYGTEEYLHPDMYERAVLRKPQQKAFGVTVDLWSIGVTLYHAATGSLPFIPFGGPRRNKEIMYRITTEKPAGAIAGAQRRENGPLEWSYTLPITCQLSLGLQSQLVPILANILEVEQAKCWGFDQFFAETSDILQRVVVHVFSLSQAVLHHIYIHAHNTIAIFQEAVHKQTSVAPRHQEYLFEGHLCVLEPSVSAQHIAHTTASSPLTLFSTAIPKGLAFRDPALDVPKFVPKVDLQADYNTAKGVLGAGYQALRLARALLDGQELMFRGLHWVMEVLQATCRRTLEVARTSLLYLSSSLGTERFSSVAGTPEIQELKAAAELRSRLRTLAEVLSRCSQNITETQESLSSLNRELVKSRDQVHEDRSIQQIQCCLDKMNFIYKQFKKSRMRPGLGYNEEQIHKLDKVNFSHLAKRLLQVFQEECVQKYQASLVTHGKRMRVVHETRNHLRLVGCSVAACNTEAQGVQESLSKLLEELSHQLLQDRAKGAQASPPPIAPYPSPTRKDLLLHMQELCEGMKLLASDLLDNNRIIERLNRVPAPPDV
Put plainly: IKKε inhibition, ADP-Glo Kinase Assay. The settings on record: luminometer. Format: biochemical. How it is done: Inhibition activities on TNIK, IKKε and TBK1 were evaluated using the compounds of Examples 1 to 254.
The inhibition activities on TNIK, IKKε and TBK1 were measured by a luminometer, TNIK/IKKε/TBK1 Kinase Enzyme System (Promega, Ca# V4158; Invitrogen, PR8031B, Promega, Ca# V3991) and ADP-Glo Kinase Assay using ADP-Glo™ Kinase Analysis Kit (Promega, Ca# V9101) and a kinase reaction buffer [40 mM Tris(pH 7.5), 20 mM MgCl2, 0.1 mg/mL BSA] in accordance with the manufacturer's protocol.
In general terms: ADP-Glo turns the ADP formed in a reaction into a luminescent signal.

For the next experiment, the target named is T2, TBK1 (Homo sapiens, UniProt Q9UHD2).
T2 construct: purchased Promega V3991
T2 sequence (Q9UHD2 1-729): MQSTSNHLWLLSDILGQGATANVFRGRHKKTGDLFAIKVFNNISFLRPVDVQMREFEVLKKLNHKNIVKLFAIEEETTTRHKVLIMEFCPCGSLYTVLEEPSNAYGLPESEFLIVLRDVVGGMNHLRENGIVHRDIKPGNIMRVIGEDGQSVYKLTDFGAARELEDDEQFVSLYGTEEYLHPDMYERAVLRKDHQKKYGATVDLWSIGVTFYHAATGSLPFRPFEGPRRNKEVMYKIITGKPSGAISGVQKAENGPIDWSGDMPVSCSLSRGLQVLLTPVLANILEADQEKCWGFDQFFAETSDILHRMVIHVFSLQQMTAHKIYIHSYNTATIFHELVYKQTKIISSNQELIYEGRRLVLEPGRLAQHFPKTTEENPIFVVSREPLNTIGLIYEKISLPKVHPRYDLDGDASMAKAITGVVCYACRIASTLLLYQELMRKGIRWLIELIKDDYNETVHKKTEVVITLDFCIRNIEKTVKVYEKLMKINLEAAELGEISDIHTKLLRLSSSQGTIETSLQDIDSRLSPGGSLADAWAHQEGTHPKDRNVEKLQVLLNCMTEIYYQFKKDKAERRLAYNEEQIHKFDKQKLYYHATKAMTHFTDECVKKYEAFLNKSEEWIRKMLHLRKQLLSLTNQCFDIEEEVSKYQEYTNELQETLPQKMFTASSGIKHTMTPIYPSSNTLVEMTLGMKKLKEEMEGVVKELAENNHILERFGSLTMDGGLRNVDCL
Put plainly: TBK1 inhibition, ADP-Glo Kinase Assay. The note with it: luminometer. In kind it is biochemical. The method in brief: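 Each recombinant kinase enzyme system was run per the manufacturer's protocol in 40 mM Tris pH 7.5, 20 mM MgCl2 and 0.1 mg/mL BSA. Kinase activity was detected as ADP formation by ADP-Glo luminescence.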

In the case of `Cc1cc(CNC(=O)c2ccc3[nH]nc(NC(=O)c4ccc(N5CCN(C)CC5)cc4)c3c2)ccn1` [Example 70, 3-(4-(4-Methylpiperazin-1-yl)benzamido)-N-((2-methylpyridin-4-yl)methyl)-1H-indazole-5-carboxamide], the IC50 (commonly the concentration that gives 50% inhibition) against IKKε was 1.5 µM; at TBK1, 0.18 µM.

On to `O=C(NCc1ccc(C(F)(F)F)nc1)c1ccc2[nH]nc(NC(=O)c3ccc(N4CCOCC4)cc3)c2c1` [Example 71, 3-(4-Morpholinobenzamido)-N-((6-(trifluoromethyl)pyridin-3-yl)methyl)-1H-indazole-5-carboxamide], for which the IC50 against IKKε is > 10 µM; against TBK1, 0.44 µM.

With `CN1CCN(c2ccc(C(=O)Nc3n[nH]c4ccc(C(=O)NCc5ccc(C(F)(F)F)nc5)cc34)cc2)CC1` [Example 72, 3-(4-(4-Methylpiperazin-1-yl)benzamido)-N-((6-(trifluoromethyl)pyridin-3-yl)methyl)-1H-indazole-5-carboxamide], the IC50 against IKKε was determined as 1.83 µM; at TBK1, 0.35 µM.

Take `Cc1cc(N2CCOCC2)ccc1C(=O)Nc1n[nH]c2ccc(C(=O)NCc3cccs3)cc12` [Example 73, 3-(2-Methyl-4-morpholinobenzamido)-N-(thiophen-2-ylmethyl)-1H-indazole-5-carboxamide]: the IC50 amounted to 0.044 µM against IKKε and 0.004 µM against TBK1.

For `Cc1cc(N2CCN(C)CC2)ccc1C(=O)Nc1n[nH]c2ccc(C(=O)NCc3cccs3)cc12` [Example 74, 3-(2-Methyl-4-(4-methylpiperazin-1-yl)benzamido)-N-(thiophen-2-ylmethyl)-1H-indazole-5-carboxamide], the IC50 was determined as 0.079 µM against IKKε and 0.0044 µM against TBK1.

As for `CN1CCN(c2ccc(C(=O)Nc3n[nH]c4ccc(C(=O)C(C(=O)O)c5cccs5)cc34)cc2)CC1` (centres unmarked) [Example 75, 3-(3-(4-(4-Methylpiperazin-1-yl)benzamido)-1H-indazol-5-yl)-3-oxo-2-(thiophen-2-yl)propanoic Acid], the IC50 against IKKε came out at 0.67 µM; against TBK1, 0.18 µM.

With `C[C@H]1CN(c2ccc(C(=O)Nc3n[nH]c4ccc(C(=O)NC5(c6ccccc6)CC5)cc34)cc2)CCN1` [Example 76, (S)-3-(4-(3-Methylpiperazin-1-yl)benzamido)-N-(1-phenylcyclopropyl)-1H-indazole-5-carboxamide], the IC50 on IKKε worked out at 0.016 µM; at TBK1 it was 0.0046 µM.

For the compound `C[C@@H]1CN(c2ccc(C(=O)Nc3n[nH]c4ccc(C(=O)NC5(c6ccccc6)CC5)cc34)cc2)CCN1` [Example 77, (R)-3-(4-(3-Methylpiperazin-1-yl)benzamido)-N-(1-phenylcyclopropyl)-1H-indazole-5-carboxamide], the figures for the IC50 against IKKε and against TBK1 were 0.018 µM and 0.0048 µM, respectively.

Consider `Cc1cc(C(=O)Nc2n[nH]c3ccc(C(=O)NCc4cccs4)cc23)ccc1N1CCOCC1` [Example 78, 3-(3-Methyl-4-morpholinobenzamido)-N-(thiophen-2-ylmethyl)-1H-indazole-5-carboxamide], for which the values for the IC50 at IKKε and at TBK1 were 0.2 µM and 0.037 µM, respectively.

For the compound `Cc1cc(C(=O)Nc2n[nH]c3ccc(C(=O)NCc4cccs4)cc23)ccc1N1CCN(C)CC1` [Example 79, 3-(3-Methyl-4-(4-methylpiperazin-1-yl)benzamido)-N-(thiophen-2-ylmethyl)-1H-indazole-5-carboxamide], the IC50 on IKKε worked out at 0.22 µM; against TBK1 it was 0.015 µM.

Turning to `CC(NC(=O)c1ccc2[nH]nc(NC(=O)c3ccc(N4CCN(C)CC4)cc3)c2c1)c1ccsc1` (centres unmarked) [Example 80, 3-(4-(4-Methylpiperazin-1-yl)benzamido)-N-(1-(thiophen-3-yl)ethyl)-1H-indazole-5-carboxamide], the IC50 against IKKε stood at 0.0074 µM; against TBK1, 0.0025 µM.

As to `CC(NC(=O)c1ccc2[nH]nc(NC(=O)c3ccc(N4CCN(C)CC4)cc3)c2c1)c1ccco1` (centres unmarked) [Example 81, N-(1-(Furan-2-yl)ethyl)-3-(4-(4-methylpiperazin-1-yl)benzamido)-1H-indazole-5-carboxamide], the figures for the IC50 against IKKε and against TBK1 were 0.021 µM and 0.0039 µM, respectively.

Regarding `CC(NC(=O)c1ccc2[nH]nc(NC(=O)c3ccc(N4CCN(C)CC4)cc3)c2c1)c1nccs1` (centres unmarked) [Example 82, 3-(4-(4-Methylpiperazin-1-yl)benzamido)-N-(1-(thiazol-2-yl)ethyl)-1H-indazole-5-carboxamide], the IC50 is 0.074 µM against IKKε and 0.014 µM against TBK1.

On to `CC(NC(=O)c1ccc2[nH]nc(NC(=O)c3ccc(N4CCN(C)CC4)cc3)c2c1)c1cncs1` (centres unmarked) [Example 83, 3-(4-(4-Methylpiperazin-1-yl)benzamido)-N-(1-(thiazol-5-yl)ethyl)-1H-indazole-5-carboxamide], for which the IC50 against IKKε came out at 0.047 µM; against TBK1 it was 0.011 µM.

For the compound `CCC(NC(=O)c1ccc2[nH]nc(NC(=O)c3ccc(N4CCN(C)CC4)cc3)c2c1)c1nccs1` (centres unmarked) [Example 84, 3-(4-(4-Methylpiperazin-1-yl)benzamido)-N-(1-(thiazol-2-yl)propyl)-1H-indazole-5-carboxamide], the IC50 against IKKε worked out at 0.069 µM; on TBK1, 0.016 µM.

In the case of `CN1CCN(c2ccc(C(=O)Nc3n[nH]c4ccc(C(=O)NCc5ccccn5)cc34)cc2)CC1` [Example 85, 3-(4-(4-Methylpiperazin-1-yl)benzamido)-N-(pyridin-2-ylmethyl)-1H-indazole-5-carboxamide bis(2,2,2-trifluoroacetate)], the IC50 at IKKε came out at 1.63 µM; against TBK1 it was 0.16 µM.

Consider `O=C(NCc1ccccn1)c1ccc2[nH]nc(NC(=O)c3ccc(N4CCOCC4)cc3)c2c1` [Example 86, 3-(4-Morpholinobenzamido)-N-(pyridin-2-ylmethyl)-1H-indazole-5-carboxamide], for which the values for the IC50 on IKKε and on TBK1 were 0.45 µM and 0.089 µM, respectively.

Take `CN1CCN(c2ccc(C(=O)Nc3n[nH]c4ccc(C(=O)NCC5CCCCC5)cc34)cc2)CC1` [Example 87, N-(Cyclohexylmethyl)-3-(4-(4-methylpiperazin-1-yl)benzamido)-1H-indazole-5-carboxamide]: the IC50 is 0.072 µM at IKKε and 0.018 µM against TBK1.

With `O=C(NCC1CCCCC1)c1ccc2[nH]nc(NC(=O)c3ccc(N4CCOCC4)cc3)c2c1` [Example 88, N-(Cyclohexylmethyl)-3-(4-morpholinobenzamido)-1H-indazole-5-carboxamide], the figures for the IC50 against IKKε and against TBK1 were 0.11 µM and 0.02 µM, respectively.

In the case of `CC1CN(c2ccc(C(=O)Nc3n[nH]c4ccc(C(=O)NCc5cccs5)cc34)cc2)CC(C)N1` (centres unmarked) [Example 89, 3-(4-(3,5-Dimethylpiperazin-1-yl)benzamido)-N-(thiophen-2-ylmethyl)-1H-indazole-5-carboxamide 2,2,2-trifluoroacetate], the results for the IC50 at IKKε and on TBK1 were 0.079 µM and 0.0056 µM, respectively.

In the case of `CN1CCN(c2ccc(C(=O)Nc3n[nH]c4ccc(C(=O)NCC5CCCC5)cc34)cc2)CC1` [Example 90, N-(Cyclopentylmethyl)-3-(4-(4-methylpiperazin-1-yl)benzamido)-1H-indazole-5-carboxamide 2,2,2-trifluoroacetate], the IC50 on IKKε came out at 0.21 µM; on TBK1, 0.013 µM.

As for `O=C(NCC1CCCC1)c1ccc2[nH]nc(NC(=O)c3ccc(N4CCOCC4)cc3)c2c1` [Example 91, N-(Cyclopentylmethyl)-3-(4-morpholinobenzamido)-1H-indazole-5-carboxamide 2,2,2-trifluoroacetate], the IC50 amounted to 0.093 µM at IKKε and 0.0053 µM against TBK1.
